Laboratory results taken from US20260207654A1, “HEPARAN SULFATE AND ITS MIMETICS AS CHEMOKINE INHIBITORS” (INDIAN INSTITUTE OF SCIENCE EDUCATION AND RESEARCH, priority 2021, published 2026).

Legend:
Assay in all cases: Chemokine glycan microarray binding assay
Conditions in all cases: maximum RFU set as 100% binding, average across 2 glycan concentrations and 3 chemokine dilutions (n=6)
CXCL8 = target: T1, CXCL8 (Homo sapiens, UniProt P10145)
T1 sequence (P10145 21-99): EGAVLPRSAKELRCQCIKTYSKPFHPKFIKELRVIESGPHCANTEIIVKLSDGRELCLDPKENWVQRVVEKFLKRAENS
Protocol: (§1) Microarray Studies: The compounds of the present invention were covalently immobilized on epoxy group collated glass slides. Slides were rehydrated with dH2O and incubated for 30 min in a staining dish with 50° C. prewarmed ethanolamine (0.05 M) in Tris-HCl (0.1 M, pH 9.0) to block the remaining reactive epoxy groups on the slide surface, then washed with 50° C. prewarmed dH2O. Slides were centrifuged at 200 g for 3 min, then fitted with the ProPlate Multi-Array 16-well slide module (Grace Bio-lab P37001) to divide into the subarrays (blocks). Slides were washed with PBST (0.1% Tween 20), aspirated, and blocked with 200 μL/subarray of blocking buffer (PBS pH 7.3+1% w/v ovalbumin) for 1 h at RT with gentle shaking. Next, the blocking solution was aspirated and 100 μL/block of primary chemokines diluted in PBS pH 7.3+1% w/v ovalbumin were incubated with gentle shaking for 2 hours at RT. Slides were washed 4 times with PBST, then with PBS (without Tween-20) for 2 min. Bound antibodies were detected by incubating with biotinylated secondary detections (1 ng/μL) diluted in PBS, 200 μL/block at RT for 1 h. Slides were washed 4 times with PBST, then with PBS (without Tween-20) for 2 min and biotinylated antibodies were detected with Cy3-SA ([…]). Slides were washed 4 times with PBST, then with PBS for 10 min followed by removal from the ProPlate Multi-Array slide module and immediately dipping in a staining dish with dH2O for 10 min with shaking. The slides were then centrifuged at 200 g for 3 min, and the dry slides immediately scanned. Binding was tested at three serial dilutions, then detected with the relevant biotinylated secondary antibody (1 μg/mL) followed by Cy3-strepavidin (1.5 μg/mL). Arrays were scanned and RFUs were calculated of chemokines binding to 100 μM glycans printed at four replicates. Rank binding of chemokines (each at three dilutions) to glycans printed at four replicates each was calculated and summarized in Table 1. For each binding assay per printed block, the maximum RFU was determined and set as 100% binding. Then, binding to all other glycans in the same block was ranked in comparison to the maximal binding, and average rank binding (and SEM) for each glycan across the three examined concentrations of each chemokine was calculated. This analysis allowed to compare the glycan-binding profiles of the different chemokines and dissect their binding preferences.
(§2) Table 1. Chemokine glycan microarray binding assay. Binding was tested at 3 serial dilutions, then detected with the relevant biotinylated secondary antibody (1 μg/ml) followed by Cy3-Strepavidin (1.5 μg/ml) (Table SX). Arrays were scanned, relative fluorescent units (RFU) obtained, and maximum RFU determined and set as 100% binding. Then rank binding (per printed glycan per concentration, per each chemokine dilution, per printed block) was determined. Since each glycans was printed at 2 concentration, 100% binding was set separately for each concentration. Then, binding to all the other glycans at the same concentration was ranked in comparison to the maximal binding, and the average rank binding and SEM for each glycan across the two glycan concentrations and three examined dilutions of each chemokine was calculated (n=6, 2 glycan concentrations across 3 chemokine dilutions). This analysis allowed to compare the glycan binding profiles of the different chemokines and dissect their binding preferences. The mean rank is shown as a heatmap of all the examined binding assays together (red highest, blue lowest and white 50th percentile of ranking).

CCL13 = CCL13 (Homo sapiens, UniProt Q99616)
Protocol: as §1, §2

CCL2 = CCL2 (Homo sapiens, UniProt P13500)
Protocol: as §1, §2

CCL5 = target: T2, CCL5 (Homo sapiens, UniProt P13501)
T2 sequence (P13501 24-91): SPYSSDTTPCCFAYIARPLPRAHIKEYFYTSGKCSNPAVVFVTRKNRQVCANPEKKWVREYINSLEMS
Protocol: as §1, §2

CCL21 = target: T3, CCL21 (Homo sapiens, UniProt O00585)
T3 sequence (O00585 24-134): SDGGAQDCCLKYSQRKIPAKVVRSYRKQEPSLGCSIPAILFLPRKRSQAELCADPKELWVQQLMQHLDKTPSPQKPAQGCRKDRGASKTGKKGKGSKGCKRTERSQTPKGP
Protocol: as §1, §2

CXCL12 = CXCL12 (Homo sapiens, UniProt P48061)
Protocol: as §1, §2

CCL28 = target: T4, CCL28 (Homo sapiens, UniProt Q9NRJ3)
T4 sequence (Q9NRJ3 20-127): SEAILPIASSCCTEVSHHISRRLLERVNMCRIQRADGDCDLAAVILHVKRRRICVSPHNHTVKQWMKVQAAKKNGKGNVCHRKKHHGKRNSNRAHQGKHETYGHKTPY
Protocol: as §1, §2

CXCL10 = target: T5, CXCL10 (Homo sapiens, UniProt P02778)
T5 sequence (P02778 22-98): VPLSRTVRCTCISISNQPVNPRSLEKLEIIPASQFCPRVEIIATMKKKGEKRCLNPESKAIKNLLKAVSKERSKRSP
Protocol: as §1, §2

CCL7 = CCL7 (Homo sapiens, UniProt P80098)
Protocol: as §1, §2

CCL7, sequence (P80098 24-99, species assumed): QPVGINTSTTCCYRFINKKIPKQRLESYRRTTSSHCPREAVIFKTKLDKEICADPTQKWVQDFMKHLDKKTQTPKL
CCL2, sequence (P13500 24-99, species assumed): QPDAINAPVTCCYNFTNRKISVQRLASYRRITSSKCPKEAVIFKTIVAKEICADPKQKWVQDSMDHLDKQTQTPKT
CCL13, sequence (Q99616 17-98, species assumed): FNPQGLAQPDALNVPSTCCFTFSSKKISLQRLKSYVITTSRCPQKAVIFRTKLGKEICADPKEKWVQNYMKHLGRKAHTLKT
CXCL12, sequence (P48061 22-93, species assumed): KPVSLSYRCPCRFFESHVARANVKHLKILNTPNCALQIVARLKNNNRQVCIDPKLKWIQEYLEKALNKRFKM

NCCOCCO[C@@H]1O[C@@H](C(=O)O)[C@@H](O[C@@H]2O[C@@H](C(=O)O)[C@@H](OS(=O)(=O)O)[C@H](O)[C@H]2OS(=O)(=O)O)[C@H](O)[C@H]1OS(=O)(=O)O [Example 6, Ethoxy-2-aminoethoxyl-O-((2,4-O-disulfonato)-α-L-idopyranosyl Uronic Acid-α(1→4)(2-sulfonato))-α-L-idopyroside Uronic Acid]
mean rank binding to CXCL8 (CXCL8): 73%
mean rank binding to CCL13 (CCL13): 94%
mean rank binding to CCL2 (CCL2): 25%
mean rank binding to CCL5 (CCL5): 38%
mean rank binding to CCL21 (CCL21): 71%
mean rank binding to CXCL12 (CXCL12): 79%
mean rank binding to CCL28 (CCL28): 84%
mean rank binding to CXCL10 (CXCL10): 67%
mean rank binding to CCL7 (CCL7): 55%

NCCOCCO[C@@H]1OC(C(=O)O)[C@@H](O)C(O)C1O (stereo partly drawn) [Example 1, Ethaoxy-2-aminoethoxyl-O-α-L-idopyranoside Uronic Acid]
mean rank binding to CXCL8 (CXCL8): 17%
mean rank binding to CCL13 (CCL13): 74%
mean rank binding to CCL2 (CCL2): 4%
mean rank binding to CCL5 (CCL5): 2%
mean rank binding to CCL21 (CCL21): 52%
mean rank binding to CXCL12 (CXCL12): 62%
mean rank binding to CCL28 (CCL28): 46%
mean rank binding to CXCL10 (CXCL10): 47%
mean rank binding to CCL7 (CCL7): 30%

NCCOCCO[C@@H]1O[C@@H](C(=O)O)[C@@H](OS(=O)(=O)O)[C@H](O)[C@H]1OS(=O)(=O)O [Example 3, Ethoxy-2-aminoethoxyl-O-(2,4-O-disulfonato)-α-L-idopyranoside Uronic Acid]
mean rank binding to CXCL8 (CXCL8): 5%
mean rank binding to CCL13 (CCL13): 69%
mean rank binding to CCL2 (CCL2): 0%
mean rank binding to CCL5 (CCL5): 1%
mean rank binding to CCL21 (CCL21): 46%
mean rank binding to CXCL12 (CXCL12): 38%
mean rank binding to CCL28 (CCL28): 72%
mean rank binding to CXCL10 (CXCL10): 24%
mean rank binding to CCL7 (CCL7): 17%

NCCOCCO[C@@H]1O[C@@H](C(=O)O)[C@@H](O[C@@H]2O[C@@H](C(=O)O)[C@@H](O[C@@H]3O[C@@H](C(=O)O)[C@@H](O[C@@H]4O[C@@H](C(=O)O)[C@@H](OS(=O)(=O)O)[C@H](O)[C@H]4O)[C@H](O)[C@H]3O)[C@H](O)[C@H]2O)[C@H](O)[C@H]1O [Example 11, Ethoxy-2-aminoethoxyl-O-(4-O-sulfonato)-α-L-idopyranosyl Uronic Acid-α(1→4)-α-L-Idopyranosyl Uronic Acid-α(1→4)-α-L-idopyranosyl Uronic Acid-α(1→4)-α-L-idopyranoside Uronic Acid]
mean rank binding to CXCL8 (CXCL8): 95%
mean rank binding to CCL13 (CCL13): 67%
mean rank binding to CCL2 (CCL2): 67%
mean rank binding to CCL5 (CCL5): 80%
mean rank binding to CCL21 (CCL21): 80%
mean rank binding to CXCL12 (CXCL12): 82%
mean rank binding to CCL28 (CCL28): 84%
mean rank binding to CXCL10 (CXCL10): 74%
mean rank binding to CCL7 (CCL7): 79%

CC(=O)NC1C(O)[C@H](O)C(CO)O[C@@H]1O[C@@H]1C(C(=O)O)O[C@@H](O[C@@H]2C(CO)O[C@H](O[C@@H]3C(C(=O)O)O[C@@H](OCCCN)C(O)C3O)C(NC(C)=O)C2O)C(O)C1O (stereo partly drawn) [Example 16, 3-Aminopropyl-O-[(2-acetamido-2-deoxy-α-D-glucopyranosyl)-(1→4)-O-(α-L-idopyranosyluronate)-(1→4)-O-(2-acetamido-2-deoxy-α-D-glucopyranosyl)]-(1→4)-O-α-L-idopyranosiduronate]
mean rank binding to CXCL8 (CXCL8): 3%
mean rank binding to CCL13 (CCL13): 24%
mean rank binding to CCL2 (CCL2): 0%
mean rank binding to CCL5 (CCL5): 1%
mean rank binding to CCL21 (CCL21): 27%
mean rank binding to CXCL12 (CXCL12): 16%
mean rank binding to CCL28 (CCL28): 22%
mean rank binding to CXCL10 (CXCL10): 14%
mean rank binding to CCL7 (CCL7): 2%

CC(=O)N[C@H]1[C@@H](O[C@H]2[C@H](O)[C@@H](O)[C@H](OCCCN)O[C@H]2C(=O)O)O[C@H](COP(=O)(O)O)[C@@H](O[C@@H]2O[C@@H](C(=O)O)[C@@H](O[C@H]3O[C@H](COP(=O)(O)O)[C@@H](O)[C@H](O)[C@H]3NC(C)=O)[C@H](O)[C@H]2O)[C@@H]1O [Example 26]
mean rank binding to CXCL8 (CXCL8): 10%
mean rank binding to CCL13 (CCL13): 70%
mean rank binding to CCL2 (CCL2): 1%
mean rank binding to CCL5 (CCL5): 5%
mean rank binding to CCL21 (CCL21): 81%
mean rank binding to CXCL12 (CXCL12): 75%
mean rank binding to CCL28 (CCL28): 39%
mean rank binding to CXCL10 (CXCL10): 48%
mean rank binding to CCL7 (CCL7): 40%

NCCOCCO[C@@H]1OC(C(=O)O)[C@@H](O[C@@H]2OC(C(=O)O)[C@@H](O[C@@H]3OC(C(=O)O)[C@@H](O[C@@H]4OC(C(=O)O)[C@@H](O)C(O)C4O)C(O)C3O)C(O)C2O)C(O)C1O (stereo partly drawn) [Example 10, Ethoxy-2-aminoethoxyl-O-(α-L-idopyranosyl Uronic Acid-α(1→4)-α-L-idopyranosyluronic acid-α(1→4)-α-L-idopyranosyluronic acid-α(1→4))-α-L-idopyranoside Uronic Acid]
mean rank binding to CXCL8 (CXCL8): 83%
mean rank binding to CCL13 (CCL13): 88%
mean rank binding to CCL2 (CCL2): 69%
mean rank binding to CCL5 (CCL5): 86%
mean rank binding to CCL21 (CCL21): 86%
mean rank binding to CXCL12 (CXCL12): 98%
mean rank binding to CCL28 (CCL28): 76%
mean rank binding to CXCL10 (CXCL10): 96%
mean rank binding to CCL7 (CCL7): 87%

CC(=O)NC1C(O)[C@H](O)C(COS(=O)(=O)O)O[C@@H]1O[C@@H]1C(C(=O)O)O[C@@H](O[C@@H]2C(COS(=O)(=O)O)O[C@H](O[C@@H]3C(C(=O)O)O[C@@H](OCCCN)C(OS(=O)(=O)O)C3O)C(NC(C)=O)C2O)C(OS(=O)(=O)O)C1O (stereo partly drawn) [Example 20, 3-Aminopropyl-O-[(2-acetamido-6-O-sulfonato-2-deoxy-α-D-glucopyranosyl)-(1→4)-O-(2-O-sulfonato-α-L-idopyranosyluronate)-(1→4)-O-(2-acetamido-6-O-sulfonato-2-deoxy-α-D-glucopyranosyl)]-(1→4)-O-2-O-sulfonato-α-L-idopyranosiduronate]
mean rank binding to CXCL8 (CXCL8): 53%
mean rank binding to CCL13 (CCL13): 79%
mean rank binding to CCL2 (CCL2): 30%
mean rank binding to CCL5 (CCL5): 54%
mean rank binding to CCL21 (CCL21): 71%
mean rank binding to CXCL12 (CXCL12): 69%
mean rank binding to CCL28 (CCL28): 66%
mean rank binding to CXCL10 (CXCL10): 64%
mean rank binding to CCL7 (CCL7): 86%
